PMC9332802, “Structure–Activity Relationship of New Chimeric Analogs of Mastoparan from the Wasp Venom Paravespula lewisii” (International Journal of Molecular Sciences, 2022)
In brackets after ≈: the same amount, converted by molar mass. Where two headings read alike, the source gives them in different places. Ends that are not written are not given here.

What was measured:
Assay in all cases: microbe, parasite or virus in culture
Assay type in all cases: cell-based
[1] = test system: Pseudomonas aeruginosae NCTC 6749; settings: for MIC P. aeruginosae: broth microdilution (CLSI), Mueller–Hinton broth, 37 °C, peptide 0.125 to […], no visible growth, triplicate
Experimental: (§1) Antimicrobial activity of peptides was examined against three reference strains: Staphylococcus aureus NCTC 4163, Escherichia coli NCTC 8196 and Pseudomonas aeruginosae NCTC 6749 dedicated for the determination of antibacterial activity. The bacterial strains were stored in glycerol stock (Sigma-Aldrich, St. Louis, MO, USA) at −80 °C. Before testing, the strains were cultured aerobically in Tryptic Soy Agar (BD DIFCO, Franklin Lakes, NJ, USA) at 37 °C for 20 h. The susceptibility of microorganisms to the peptides was determined by the broth microdilution assay according to the procedures outlined by CLSI [49]. […] In order to prepare the bacterial suspension, an overnight culture of bacteria in Tryptic Soy Broth (BD DIFCO, Franklin Lakes, NJ, USA) was diluted in sterile saline to a final concentration of approximately 10^7 CFU/mL of bacteria. Aliquots (5 µL) of bacterial suspension were added to each peptide solution. The sterility control (containing the tested peptide in broth) and the growth control (containing the reference strain in broth without the tested peptide) were also set up. The plates were incubated at 37 °C under aerobic conditions. The results are expressed as the minimal inhibitory concentration (MIC) of the compounds in question. The MIC was defined as the lowest concentration at which no visible growth of bacteria (no turbidity) was observed. The assay was performed in triplicate.

[2] = test system: Escherichia coli NCTC 8196; settings: for MIC E. coli: peptide 0.125 to […], no visible growth
Experimental: as §1

[3] = test system: Staphylococcus aureus NCTC 4163; settings: for MIC: read-out: MIC S. aureus; for MIC S. aureus: peptide 0.125 to […], no visible growth
Experimental: as §1

[4] = same MIC expressed as molar concentration, broth microdilution (CLSI), Mueller–Hinton broth, 37 °C, triplicate
[5] = broth microdilution (CLSI), Mueller–Hinton broth, 37 °C, triplicate

CNC(C)C1CCC(N)C(OC2C(N)CC(N)C(OC3OCC(C)(O)C(NC)C3O)C2O)O1 (stereo not drawn) [Gentamicin, gentamicin, reference compound]
MIC ([1]; Pseudomonas, NCTC6749, read-out: MIC P. aeruginosae): 0.25 µg/mL (≈ 0.523 µM)
MIC ([2]; Escherichia coli, NCTC8196): 1 µg/mL
MIC ([2]; Escherichia coli, NCTC8196, same MIC expressed as molar concentration, broth microdilution (CLSI), Mueller–Hinton broth, 37 °C, triplicate): 2.1 µM
MIC ([3]; Staphylococcus aureus, NCTC4163): 0.5 µg/mL
MIC ([3]; Staphylococcus aureus, NCTC4163, same MIC expressed as molar concentration, broth microdilution (CLSI), Mueller–Hinton broth, 37 °C, triplicate): 1.1 µM

CC[C@H](C)[C@H](N)C(=O)N[C@@H](CC(N)=O)C(=O)N[C@@H](CC(C)C)C(=O)N[C@@H](CCCCN)C(=O)N[C@@H](C)C(=O)N[C@@H](CC(C)C)C(=O)N[C@@H](C)C(=O)N[C@@H](C)C(=O)N[C@@H](CC(C)C)C(=O)N[C@@H](C)C(=O)N[C@@H](CCCCN)C(=O)N[C@@H](CCCCN)C(=O)N[C@H](C(=O)N[C@@H](CC(C)C)C(N)=O)[C@@H](C)CC [MP, mastoparan]
MIC P. aeruginosae [1]: 256 µg/mL (≈ 173 µM)
MIC [2, 4]: 21.6 µM
MIC [3, 4]: 5.4 µM

CC[C@H](C)[C@H](NC(=O)[C@H](CCCCN)NC(=O)[C@H](CCCCN)NC(=O)[C@H](C)NC(=O)[C@H](CC(C)C)NC(=O)[C@H](C)NC(=O)[C@H](C)NC(=O)[C@H](CC(C)C)NC(=O)[C@H](C)NC(=O)[C@H](CCCCN)NC(=O)[C@H](CC(C)C)NC(=O)[C@H](CC(N)=O)NC(=O)[C@@H](NC(=O)[C@H](CCCCN)NC(=O)CNC(=O)[C@H](CC(C)C)NC(=O)[C@H](CC(C)C)NC(=O)[C@H](Cc1ccc(O)cc1)NC(=O)CNC(=O)[C@H](C)N)[C@@H](C)CC)C(=O)N[C@@H](CC(C)C)C(N)=O [TP10, transportan 10, reference compound]
MIC P. aeruginosae [1]: 256 µg/mL (≈ 117 µM)

CC[C@H](C)[C@H](NC(=O)[C@H](CCCCN)NC(=O)[C@H](CCCCN)NC(=O)[C@H](C)NC(=O)[C@H](CC(C)C)NC(=O)[C@H](C)NC(=O)[C@H](C)NC(=O)[C@H](CC(C)C)NC(=O)[C@H](C)NC(=O)[C@H](CCCCN)NC(=O)[C@H](CC(C)C)NC(=O)[C@H](CC(N)=O)NC(=O)[C@@H](NC(=O)[C@H](CCCCN)NC(=O)CNC(=O)[C@H](CC(C)C)NC(=O)[C@H](CC(C)C)NC(=O)[C@H](Cc1ccc(O)cc1)NC(=O)CNC(=O)[C@H](C)NC(=O)[C@H](CO)NC(=O)[C@H](CC(N)=O)NC(=O)[C@H](CC(C)C)NC(=O)[C@@H](NC(=O)[C@H](Cc1c[nH]c2ccccc12)NC(=O)CN)[C@@H](C)O)[C@@H](C)CC)C(=O)N[C@@H](CC(C)C)C(N)=O [TP, transportan, reference compound]
MIC P. aeruginosae [1]: >256 µg/mL

CC[C@H](C)[C@H](NC(=O)[C@H](CCCCN)NC(=O)[C@H](CCCCN)NC(=O)[C@H](C)NC(=O)[C@H](CC(C)C)NC(=O)[C@H](C)NC(=O)[C@H](C)NC(=O)[C@H](CC(C)C)NC(=O)[C@H](C)NC(=O)[C@H](CCCCN)NC(=O)[C@H](CC(C)C)NC(=O)[C@H](CC(N)=O)NC(=O)[C@@H](NC(=O)[C@H](CCCCNC(=O)Cn1cnc2ccccc21)NC(=O)CNC(=O)[C@H](CC(C)C)NC(=O)[C@H](CC(C)C)NC(=O)[C@H](Cc1ccc(O)cc1)NC(=O)CNC(=O)[C@H](C)N)[C@@H](C)CC)C(=O)N[C@@H](CC(C)C)C(N)=O [[Lys^7 (BnzAc)] TP10]
MIC P. aeruginosae [1]: >256 µg/mL
MIC E. coli [2, 5]: >256 µg/mL
MIC S. aureus [3, 5]: 256 µg/mL (≈ 109 µM)

CC[C@H](C)[C@H](NC(=O)[C@H](CCCCN)NC(=O)[C@H](CCCCN)NC(=O)[C@H](C)NC(=O)[C@H](CC(C)C)NC(=O)[C@H](C)NC(=O)[C@H](C)NC(=O)[C@H](CC(C)C)NC(=O)[C@H](C)NC(=O)[C@H](CCCCN)NC(=O)[C@H](CC(C)C)NC(=O)[C@H](CC(N)=O)NC(=O)[C@@H](NC(=O)[C@H](CCCCNC(=O)Cn1c(-c2ccccc2Cl)nc2ccccc21)NC(=O)CNC(=O)[C@H](CC(C)C)NC(=O)[C@H](CC(C)C)NC(=O)[C@H](Cc1ccc(O)cc1)NC(=O)CNC(=O)[C@H](C)N)[C@@H](C)CC)C(=O)N[C@@H](CC(C)C)C(N)=O [[Lys^7 (ClBnzAc)] TP10]
MIC P. aeruginosae [1]: >256 µg/mL
MIC E. coli [2, 5]: >256 µg/mL
MIC S. aureus [3, 5]: >256 µg/mL

CCCCCCCCCc1nc2ccccc2n1CC(=O)NCCCC[C@H](NC(=O)CNC(=O)[C@H](CC(C)C)NC(=O)[C@H](CC(C)C)NC(=O)[C@H](Cc1ccc(O)cc1)NC(=O)CNC(=O)[C@H](C)N)C(=O)N[C@H](C(=O)N[C@@H](CC(N)=O)C(=O)N[C@@H](CC(C)C)C(=O)N[C@@H](CCCCN)C(=O)N[C@@H](C)C(=O)N[C@@H](CC(C)C)C(=O)N[C@@H](C)C(=O)N[C@@H](C)C(=O)N[C@@H](CC(C)C)C(=O)N[C@@H](C)C(=O)N[C@@H](CCCCN)C(=O)N[C@@H](CCCCN)C(=O)N[C@H](C(=O)N[C@@H](CC(C)C)C(N)=O)[C@@H](C)CC)[C@@H](C)CC [[Lys^7 (NBnzAc)] TP10]
MIC P. aeruginosae [1]: >256 µg/mL
MIC E. coli [2, 5]: >256 µg/mL
MIC S. aureus [3, 5]: >256 µg/mL

AGYLLGINLKALAALAKKILYKPITNF-NH2 [[desLys^7] TP10-[Lys^2, Ile^4] RIP]
MIC P. aeruginosae [1]: >256 µg/mL

GWTLNSAGYLLGPINLKALAALAKKIL-NH2 [Galp, galparan, reference compound]
MIC P. aeruginosae [1]: >256 µg/mL

INLKALAALAKKILYKPITNF-NH2 [MP-[Lys^2, Ile^4] RIP]
MIC P. aeruginosae [1]: >256 µg/mL

KALAALAKKIL-NH2 [MP (4–14)]
MIC P. aeruginosae [1]: >256 µg/mL

KALAALAKKILYKPITNF-NH2 [MP (4–14)-[Lys^2, Ile^4] RIP]
MIC P. aeruginosae [1]: >256 µg/mL

KALAALAKKILYSPWTNF-NH2 [MP (4–14)-RIP]
MIC P. aeruginosae [1]: >256 µg/mL

YKPITNF-NH2 [[Lys^2, Ile^4] RIP, reference compound]
MIC P. aeruginosae [1]: >256 µg/mL

YKPITNFINLKALAALAKKIL-NH2 [[Lys^2, Ile^4] RIP-MP]
MIC P. aeruginosae [1]: >256 µg/mL
